{"source": "PubChem BioAssay AID1963839", "about": "(Molecular Pharmacology Branch, DTP, NCI, 2024)", "test_system": "817829-284-R-J1-PDC complex spheroid viability", "experiment": "Anticancer human tumor 817829-284-R-J1-PDC patient-derived colon adenocarcinoma cell line growth inhibition [POLQ]", "details": "for viability, T/C: stronger effect = lower value", "protocol": "Multicellular complex tumor spheroid response to Polymerase (POL) inhibitors (novobiocin, ART-558, RP6685) in combination with a variety of drugs and investigational agents in selected tumor cell lines\nThe POL inhibitors (novobiocin, ART-558, and RP6685) were evaluated both individually and in combination with standard of care and investigational anticancer small molecules within a complex spheroid model of solid tumors. . Complex spheroids include a stromal component modeled by human endothelial cells (HUVEC) and fibroblasts modeled by human mesenchymal stem cells (MSCs). The concentration ranges selected for each drug and investigational agent were based upon clinically achievable concentrations if the clinical Cmax of the agent was known.\nCompounds. The drugs and investigational agents: novobiocin (NSC847541), ART-558 (NSC835418), RP-6685 (NSC848927), peposertib (NSC802822), ceralasertib (NSC780249), elimusertib (NSC800525), camonsertib (NSC841442), AZD-1390 (NSC803789), olaparib (NSC753686), talazoparib (NSC767125), rucaparib (NSC756644), sotorasib (NSC818433), MRTX-1133 (NSC836407), SN-38 (NSC673596), topotecan (NSC609699), epotoside (NSC141540), doxorubicin (NSC123127), gemcitabine (NSC613327), 5-fluorouracil (NSC19893), paclitaxel (NSC125973), vemurafenib (NSC761431), MSA-2 (NSC828583), SN-011 (NSC837082), adavosertib (NSC754352), prexasertib (NSC758257), carboplatin (NSC241240) and oxaliplatin (NSC266046), were obtained from the National Cancer Institute (NCI) Developmental Therapeutics Program Chemical Repository (21). The FDA-approved anticancer drug set is available from the Developmental Therapeutics Program at https://dtp.cancer.gov/organization/dscb/obtaining/. […] The stock solutions were prepared in dimethyl sulfoxide (DMSO, Sigma-Aldrich, St. Louis, MO, cat. D2650), except for the platinum compounds which were prepared in saline (Quality Biological, Gaithersburg, MD, cat. 114-055-101), at 800-fold the tested concentration and stored at -70 degrees C prior to their use. All drugs and investigational agents were tested over a range starting from a high concentration at or near the clinical Cmax and decreasing in half-log increments. If the clinical Cmax for an agent had not been determined, the highest concentration tested was 10 microM, except for SN-38, which was tested at a high concentration of 1 microM.\nCell Culture. All cells were maintained in an incubator at 37 degrees C and 5% CO2 with 95% humidity. The PDC lines were cultured according to standard operating procedures established by the NCI PDMR (https://pdmr.cancer.gov). Table 3 of the manuscript, lists the cell lines along with the number of the three cell types plated to form the mct-spheroids and media for tumor cell growth. After thawing, all PDC lines, except 997537-175-T-J1-PDC and 415267-285-R-J2-PDC, were cultured in Matrigel-coated flasks prepared with a working solution of 1X Ham's F-12 nutrient mix, without supplementation (Thermo Fisher Scientific, cat. 11765054), 100 U/mL penicillin-streptomycin (Thermo Fisher Scientific, cat. 15140122), and 2.5% Matrigel (Corning Inc., Corning, NY, cat. 354248) for the first three passages. The two PDC lines 997537-175-T-J1-PDC and 415267-285-R-J2-PDC were cultured on uncoated flasks. The 857933-349-R-J2-PDC line was cultured in 6C/Colon 1B media containing advanced DMEM/F-12 (Thermo Fisher Scientific, cat. 12634028), 10 mM HEPES (Thermo Fisher Scientific, cat. 15630080), 1X GlutaMAX supplement (Thermo Fisher Scientific, cat. 35050061), 0.1 mg/mL primocin (InvivoGen, San Diego, CA, cat. ant-pm-2), 10% defined fetal bovine serum, heat inactivated (HyClone Laboratories Inc., Logan, UT, cat. SH30070.03HI), 50% L-WRN conditioned media (ATCC, cat. CRL-3276), 1.25 mM N-Acetyl-L-cysteine (Sigma-Aldrich, cat. A9165), 10 mM nicotinamide (Sigma-Aldrich, cat. N0636), 1X B-27 supplement (Thermo Fisher Scientific, cat. 17504044), 1X N-2 supplement (Thermo Fisher Scientific, cat. […]", "note": "Where “and” joins values, the source holds several entries; their conditions need not be identical. Equal entries are not always repeated.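 Note: spheroids exposed to compounds for 7 days.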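 Throughout, for viability, T/C: 100% = DMSO vehicle-treated spheroids.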", "data": [{"smiles": "COc1ccc([C@@H](O)c2cc(-c3ncnc4cc(N5CCOCC5)ccc34)c(F)cc2Cl)nn1", "values": [{"measurement": "viability, T/C", "setting": "compound 0.0316 µM", "value": "79.4% and 93.7% and 78.8%"}, {"measurement": "viability, T/C", "setting": "compound 0.1 µM", "value": "94.5% and 91% and 91.4%"}, {"measurement": "viability, T/C", "setting": "compound 0.316 µM", "value": "65.4% and 72.2% and 74.5%"}, {"measurement": "viability, T/C", "setting": "compound 1 µM", "value": "41% and 43.4% and 43.2%"}, {"measurement": "viability, T/C", "setting": "compound 3.16 µM", "value": "30.4% and 40.3% and 25.8%"}, {"measurement": "viability, T/C", "setting": "compound 10 µM", "value": "19.4% and 22.7% and 12.3%"}, {"measurement": "IC50", "setting": "curve of compound", "value": "684 nM and 894 nM and 830 nM"}]}, {"smiles": "Nc1ccn(C2OC(CO)C(O)C2(F)F)c(=O)n1", "note": "(stereo not drawn)", "values": [{"measurement": "viability, T/C", "setting": "compound 0.0316 µM", "value": "5.66% and 4.03% and 5.85%"}, {"measurement": "viability, T/C", "setting": "compound 0.1 µM", "value": "5.98% and 3.62% and 5.26%"}, {"measurement": "viability, T/C", "setting": "compound 0.316 µM", "value": "6.49% and 4.28% and 5.54%"}, {"measurement": "viability, T/C", "setting": "compound 1 µM", "value": "5.15% and 3.77% and 4.65%"}, {"measurement": "viability, T/C", "setting": "compound 3.16 µM", "value": "4.26% and 2.95% and 4.25%"}, {"measurement": "viability, T/C", "setting": "compound 10 µM", "value": "3.15% and 2.31% and 3.29%"}, {"measurement": "IC50", "setting": "curve of compound", "value": "< 31.6", "unit": "nM"}]}, {"smiles": "Cn1ncnc1[C@H]1c2n[nH]c(=O)c3cc(F)cc(c23)N[C@@H]1c1ccc(F)cc1", "note": "+ Cc1cccc(N(C)C(=O)C2C(O)CCN2c2nc(C)cc(C(F)(F)F)c2C#N)c1", "values": [{"measurement": "IC50", "setting": "curve of first compound, second compound 0.0316 µM", "value": 10.2, "unit": "nM"}, {"measurement": "IC50", "setting": "curve of first compound, second compound 0.1 µM", "value": 17.9, "unit": "nM"}, {"measurement": "IC50", "setting": "curve of first compound, second compound 0.316 µM", "value": 14.2, "unit": "nM"}, {"measurement": "IC50", "setting": "curve of first compound, second compound 1 µM", "value": 6.63, "unit": "nM"}, {"measurement": "IC50", "setting": "curve of first compound, second compound 3.16 µM", "value": 12, "unit": "nM"}, {"measurement": "IC50", "setting": "curve of first compound, second compound 10 µM", "value": 6.59, "unit": "nM"}, {"measurement": "viability, T/C", "setting": "second compound 0.0316 µM, first compound 0.000316 µM", "value": 79.7, "unit": "%"}, {"measurement": "viability, T/C", "setting": "second compound 0.0316 µM, first compound 0.001 µM", "value": 88.5, "unit": "%"}, {"measurement": "viability, T/C", "setting": "second compound 0.0316 µM, first compound 0.00316 µM", "value": 79, "unit": "%"}, {"measurement": "viability, T/C", "setting": "second compound 0.0316 µM, first compound 0.01 µM", "value": 48.3, "unit": "%"}, {"measurement": "viability, T/C", "setting": "second compound 0.0316 µM, first compound 0.0316 µM", "value": 39.4, "unit": "%"}, {"measurement": "viability, T/C", "setting": "second compound 0.0316 µM, first compound 0.1 µM", "value": 25.8, "unit": "%"}, {"measurement": "viability, T/C", "setting": "second compound 0.1 µM, first compound 0.000316 µM", "value": 103, "unit": "%"}, {"measurement": "viability, T/C", "setting": "second compound 0.1 µM, first compound 0.001 µM", "value": 93.2, "unit": "%"}, {"measurement": "viability, T/C", "setting": "second compound 0.1 µM, first compound 0.00316 µM", "value": 58.9, "unit": "%"}, {"measurement": "viability, T/C", "setting": "second compound 0.1 µM, first compound 0.01 µM", "value": 69, "unit": "%"}, {"measurement": "viability, T/C", "setting": "second compound 0.1 µM, first compound 0.0316 µM", "value": 39.2, "unit": "%"}, {"measurement": "viability, T/C", "setting": "second compound 0.1 µM, first compound 0.1 µM", "value": 30, "unit": "%"}, {"measurement": "viability, T/C", "setting": "second compound 0.316 µM, first compound 0.000316 µM", "value": 65.8, "unit": "%"}, {"measurement": "viability, T/C", "setting": "second compound 0.316 µM, first compound 0.001 µM", "value": 82.8, "unit": "%"}, {"measurement": "viability, T/C", "setting": "second compound 0.316 µM, first compound 0.00316 µM", "value": 85.4, "unit": "%"}, {"measurement": "viability, T/C", "setting": "second compound 0.316 µM, first compound 0.01 µM", "value": 57.6, "unit": "%"}, {"measurement": "viability, T/C", "setting": "second compound 0.316 µM, first compound 0.0316 µM", "value": 36.8, "unit": "%"}, {"measurement": "viability, T/C", "setting": "second compound 0.316 µM, first compound 0.1 µM", "value": 28.6, "unit": "%"}, {"measurement": "viability, T/C", "setting": "second compound 1 µM, first compound 0.000316 µM", "value": 89.3, "unit": "%"}, {"measurement": "viability, T/C", "setting": "second compound 1 µM, first compound 0.001 µM", "value": 97.8, "unit": "%"}, {"measurement": "viability, T/C", "setting": "second compound 1 µM, first compound 0.00316 µM", "value": 68.8, "unit": "%"}, {"measurement": "viability, T/C", "setting": "second compound 1 µM, first compound 0.01 µM", "value": 42.5, "unit": "%"}, {"measurement": "viability, T/C", "setting": "second compound 1 µM, first compound 0.0316 µM", "value": 46.1, "unit": "%"}, {"measurement": "viability, T/C", "setting": "second compound 1 µM, first compound 0.1 µM", "value": 29.5, "unit": "%"}, {"measurement": "viability, T/C", "setting": "second compound 3.16 µM, first compound 0.000316 µM", "value": 99.1, "unit": "%"}, {"measurement": "viability, T/C", "setting": "second compound 3.16 µM, first compound 0.001 µM", "value": 80, "unit": "%"}, {"measurement": "viability, T/C", "setting": "second compound 3.16 µM, first compound 0.00316 µM", "value": 72.4, "unit": "%"}, {"measurement": "viability, T/C", "setting": "second compound 3.16 µM, first compound 0.01 µM", "value": 47.4, "unit": "%"}, {"measurement": "viability, T/C", "setting": "second compound 3.16 µM, first compound 0.0316 µM", "value": 41.3, "unit": "%"}, {"measurement": "viability, T/C", "setting": "second compound 3.16 µM, first compound 0.1 µM", "value": 28.4, "unit": "%"}, {"measurement": "viability, T/C", "setting": "second compound 10 µM, first compound 0.000316 µM", "value": 64.5, "unit": "%"}, {"measurement": "viability, T/C", "setting": "second compound 10 µM, first compound 0.001 µM", "value": 86, "unit": "%"}, {"measurement": "viability, T/C", "setting": "second compound 10 µM, first compound 0.00316 µM", "value": 54.8, "unit": "%"}, {"measurement": "viability, T/C", "setting": "second compound 10 µM, first compound 0.01 µM", "value": 47.1, "unit": "%"}, {"measurement": "viability, T/C", "setting": "second compound 10 µM, first compound 0.0316 µM", "value": 30.4, "unit": "%"}, {"measurement": "viability, T/C", "setting": "second compound 10 µM, first compound 0.1 µM", "value": 29.7, "unit": "%"}]}, {"smiles": "CC[C@@]1(O)C(=O)OCc2c1cc1n(c2=O)Cc2cc3c(CN(C)C)c(O)ccc3nc2-1", "values": [{"measurement": "viability, T/C", "setting": "compound 0.000316 µM", "value": "89.9% and 104% and 89%"}, {"measurement": "viability, T/C", "setting": "compound 0.001 µM", "value": "72.3% and 95.7% and 74.1%"}, {"measurement": "viability, T/C", "setting": "compound 0.00316 µM", "value": "55.4% and 82.4% and 60.1%"}, {"measurement": "viability, T/C", "setting": "compound 0.01 µM", "value": "39.6% and 38.4% and 46%"}, {"measurement": "viability, T/C", "setting": "compound 0.0316 µM", "value": "22.9% and 25.4% and 21.7%"}, {"measurement": "viability, T/C", "setting": "compound 0.1 µM", "value": "15.2% and 16.8% and 14.6%"}, {"measurement": "IC50", "setting": "curve of compound", "value": "4.5 nM and 7.57 nM and 6.12 nM"}]}]}
